The test deals with Cavia porcellus. Description: Anti-cardiac arrhythmia activity in anaesthetised guinea pig assessed as cumulative dose inducing prolongation of monophasic action potential duration by 10% from baseline administered as first dose infusion in 0.2 mL/kg into jugular vein catheter for 30 secs followed by next dosing after 5 mins for 6 to 10 consecutive times by electrophysiology based assay. The format is functional.
As to `CN(CCN1CC2CN(Cc3ccc(C#N)cc3)CC(C1)O2)S(=O)(=O)c1ccc(C#N)cc1`, the D10 is more than 5.5 mg/kg. Consider `N#Cc1ccc(CNS(=O)(=O)CCN2CC3CN(Cc4ccc(C#N)cc4)CC(C2)O3)cc1`, for which the D10 is more than 5.5 mg/kg. The result for `N#Cc1ccc(S(=O)(=O)NCCN2CC3CN(CCCOc4cc(F)ccc4F)CC(C2)O3)cc1` reads more than 5.5 mg/kg; that for `N#Cc1ccc(OCCN2CC3CN(CCNS(=O)(=O)c4cccc(F)c4)CC(C2)O3)cc1`, more than 5.5 mg/kg; that for `N#Cc1ccc(OCCCN2CC3CN(CCNS(=O)(=O)c4cccc(F)c4)CC(C2)O3)cc1`, more than 5.5 mg/kg. The result for `N#Cc1ccc(S(=O)(=O)NCCN2CC3CN(Cc4c[nH]c5ccc(F)cc45)CC(C2)O3)cc1` reads more than 5.5 mg/kg; that for `Cc1noc(C)c1CN1CC2CN(CCNS(=O)(=O)c3ccc(C#N)cc3)CC(C1)O2`, more than 5.5 mg/kg. To `O=S(=O)(NCCN1CC2CN(CCc3ccc(F)cc3)CC(C1)O2)c1ccc(F)cc1` belongs more than 5.5 mg/kg; to `CC(C)S(=O)(=O)NCCN1CC2CN(C[C@H](O)COc3ccc(C#N)cc3)CC(C1)O2`, more than 5.5 mg/kg; to `CC(C)S(=O)(=O)NCCCN1CC2CN(CCCOc3ccc(C#N)cc3)CC(C1)O2`, more than 5.5 mg/kg. For `N#Cc1ccc(OCCN2CC3CN(CCNS(=O)(=O)c4cccc(F)c4)CC(C2)O3)c(F)c1`, the D10 was more than 5.5 mg/kg. As for `N#Cc1ccc(OCCCN2CC3CN(CCNS(=O)(=O)c4ccc(F)cc4)CC(C2)O3)cc1`, the D10 was more than 5.5 mg/kg. As to `O=S(=O)(NCCN1CC2CN(Cc3ccc(F)cc3)CC(C1)O2)c1ccc(F)cc1`, the D10 is more than 5.5 mg/kg. The result for `CC(C)S(=O)(=O)NCCN1CC2CN(CCCOc3ccc(C#N)cc3)CC(C1)O2` reads more than 5.5 mg/kg; that for `N#Cc1ccc(CN2CC3CN(CCNS(=O)(=O)Cc4ccccc4)CC(C2)O3)cc1`, more than 5.5 mg/kg. As to `N#Cc1ccc(S(=O)(=O)NCCN2CC3CN(Cc4coc5ccccc45)CC(C2)O3)cc1`, the D10 was more than 5.5 mg/kg. Turning to `CN(CCN1CC2CN(CCc3ccc(F)cc3)CC(C1)O2)S(=O)(=O)c1ccc(C#N)cc1`, the D10 was more than 5.5 mg/kg. `CN(CCN1CC2CN(Cc3ccc(F)cc3)CC(C1)O2)S(=O)(=O)c1ccc(C#N)cc1`: the D10 was more than 5.5 mg/kg. To `Cc1noc(C)c1S(=O)(=O)NCCCN1CC2CN(CCOc3ccc(C#N)cc3)CC(C1)O2` belongs more than 5.5 mg/kg.

Take `N#Cc1ccc(CN2CC3CN(CCNS(=O)(=O)c4ccc(F)cc4)CC(C2)O3)cc1`: the D10 is more than 5.5 mg/kg. To `N#Cc1ccc(CCN2CC3CN(CCNS(=O)(=O)c4ccc(F)cc4)CC(C2)O3)cc1` belongs more than 5.5 mg/kg; to `N#Cc1ccc(CN2CC3CN(CCNS(=O)(=O)c4ccccc4C#N)CC(C2)O3)cc1`, more than 5.5 mg/kg. The result for `N#Cc1ccc(OCCN2CC3CN(CCNS(=O)(=O)c4ccccc4)CC(C2)O3)cc1` reads more than 5.5 mg/kg; that for `CN(CCN1CC2CN(CCCOc3ccc(F)cc3)CC(C1)O2)S(=O)(=O)c1ccc(C#N)cc1`, more than 5.5 mg/kg; that for `N#Cc1ccc(S(=O)(=O)NCCCN2CC3CN(CCOc4c(F)cccc4F)CC(C2)O3)cc1`, more than 5.5 mg/kg. To `N#Cc1ccc(OCCCN2CC3CN(CCNS(=O)(=O)c4ccc(F)cc4F)CC(C2)O3)cc1` belongs more than 5.5 mg/kg. In the case of `N#Cc1ccc(OCCN2CC3CN(CCNS(=O)(=O)c4ccccc4)CC(C2)O3)c(F)c1`, the D10 was more than 5.5 mg/kg. The result for `CN(CCN1CC2CN(CCCOc3ccc(F)cc3F)CC(C1)O2)S(=O)(=O)c1ccc(C#N)cc1` reads more than 5.5 mg/kg.

In the case of `N#Cc1ccc(S(=O)(=O)NCCCN2CC3CN(CCCOc4ccc(F)cc4)CC(C2)O3)cc1`, the D10 was more than 5.5 mg/kg. To `N#Cc1cccc(S(=O)(=O)NCCN2CC3CN(CCOc4ccc(C#N)cc4F)CC(C2)O3)c1` belongs more than 5.5 mg/kg; to `COc1ccc(S(=O)(=O)NCCN2CC3CN(CCOc4ccc(C#N)cc4)CC(C2)O3)cc1`, more than 5.5 mg/kg. To `N#Cc1ccc(S(=O)(=O)NCCN2CC3CN(CCCOc4ccc(F)cc4)CC(C2)O3)cc1` belongs more than 5.5 mg/kg; to `N#Cc1ccc(S(=O)(=O)NCCN2CC3CN(Cc4ccccc4C#N)CC(C2)O3)cc1`, more than 5.5 mg/kg; to `Cn1cnc(S(=O)(=O)NCCN2CC3CN(CCCOc4ccc(C#N)cc4)CC(C2)O3)c1`, more than 5.5 mg/kg.

As for `N#Cc1ccc(OCCCN2CC3CN(CCNS(=O)(=O)Cc4cccc(Cl)c4)CC(C2)O3)cc1`, the D10 is more than 5.5 mg/kg. As for `Cc1noc(C)c1CN1CC2CN(CCS(=O)(=O)NCc3ccc(C#N)cc3)CC(C1)O2`, the D10 is more than 5.5 mg/kg. To `Cc1noc(C)c1CN1CC2CN(CCS(=O)(=O)N(Cc3ccc(C#N)cc3)Cc3c(C)noc3C)CC(C1)O2` belongs more than 5.5 mg/kg; to `N#Cc1ccc(S(=O)(=O)NCCN2CC3CN(Cc4ccc(OC(F)F)cc4)CC(C2)O3)cc1`, more than 5.5 mg/kg; to `N#Cc1ccc(OCCCN2CC3CN(CCNS(=O)(=O)C(F)(F)F)CC(C2)O3)cc1`, more than 5.5 mg/kg. Take `N#Cc1ccc(OCCN2CC3CN(CCCNS(=O)(=O)c4ccc(F)cc4F)CC(C2)O3)c(F)c1`: the D10 was more than 5.5 mg/kg. Regarding `N#Cc1ccc(OCCCN2CC3CN(CCNS(=O)(=O)Cc4ccc(C(F)(F)F)cc4)CC(C2)O3)cc1`, the D10 is more than 5.5 mg/kg. To `CCCCS(=O)(=O)NCCN1CC2CN(CCCOc3ccc(C#N)cc3)CC(C1)O2` belongs more than 5.5 mg/kg; to `N#Cc1ccc(OCCN2CC3CN(CCNS(=O)(=O)Cc4ccccc4)CC(C2)O3)c(F)c1`, more than 5.5 mg/kg. To `N#Cc1ccc(S(=O)(=O)NCCN2CC3CN(CCc4ccc(C(F)(F)F)cc4)CC(C2)O3)cc1` belongs more than 5.5 mg/kg; to `N#Cc1ccc(S(=O)(=O)NCCN2CC3CN(CCc4ccc(F)cc4F)CC(C2)O3)cc1`, more than 5.5 mg/kg; to `CN(CCN1CC2CN(Cc3ccc(C#N)cc3F)CC(C1)O2)S(=O)(=O)c1ccc(C#N)cc1`, more than 5.5 mg/kg. To `N#Cc1ccc(S(=O)(=O)NCCN2CC3CN(CCc4ccccc4F)CC(C2)O3)cc1` belongs more than 5.5 mg/kg; to `N#Cc1ccc(CNS(=O)(=O)CCN2CC3CN(CCc4ccc(F)cc4)CC(C2)O3)cc1`, more than 5.5 mg/kg. `N#Cc1ccc(S(=O)(=O)NCCN2CC3CN(CCCOc4ccc(C#N)cc4F)CC(C2)O3)cc1`: the D10 is more than 5.5 mg/kg. Regarding `N#Cc1ccc(OCCCN2CC3CN(CCNS(=O)(=O)c4cccc(C#N)c4)CC(C2)O3)cc1`, the D10 is more than 5.5 mg/kg.

On to `N#Cc1ccc(S(=O)(=O)NCCCN2CC3CN(CCc4cccc(F)c4)CC(C2)O3)cc1`, for which the D10 is more than 5.5 mg/kg.

With `N#Cc1ccc(OCCN2CC3CN(CCCNS(=O)(=O)c4ccc(F)cc4F)CC(C2)O3)cc1`, the D10 is more than 5.5 mg/kg. For the compound `N#Cc1ccc(CN2CC3CN(CCCNS(=O)(=O)c4ccc(C#N)cc4)CC(C2)O3)cc1`, the D10 is more than 5.5 mg/kg. The result for `N#Cc1ccc(S(=O)(=O)NCCN2CC3CN(Cc4c[nH]c5ccccc45)CC(C2)O3)cc1` reads more than 5.5 mg/kg; that for `N#Cc1ccc(OCCN2CC3CN(CCCNS(=O)(=O)c4ccccc4F)CC(C2)O3)cc1`, more than 5.5 mg/kg.

`N#Cc1ccc(OCCN2CC3CN(CCNS(=O)(=O)Cc4cccc(Cl)c4)CC(C2)O3)cc1`: the D10 is more than 5.5 mg/kg. Regarding `CN(CCN1CC2CN(Cc3ccccc3)CC(C1)O2)S(=O)(=O)c1ccc(C#N)cc1`, the D10 was more than 5.5 mg/kg. To `N#Cc1ccc(S(=O)(=O)NCCN2CC3CN(CCCOc4ccc(F)c(F)c4)CC(C2)O3)cc1` belongs more than 5.5 mg/kg; to `N#Cc1ccc(OCCN2CC3CN(CCNS(=O)(=O)c4ccc5c(c4)CCO5)CC(C2)O3)cc1`, more than 5.5 mg/kg.

For `CC(C)(C)NS(=O)(=O)CCCN1CC2CN(CCCOc3ccc(C#N)cc3)CC(C1)O2`, the D10 is more than 5.5 mg/kg. With `Cc1nn(C)c(Cl)c1S(=O)(=O)NCCN1CC2CN(CCCOc3ccc(C#N)cc3)CC(C1)O2`, the D10 was more than 5.5 mg/kg. The result for `Cc1oncc1S(=O)(=O)NCCN1CC2CN(CCCOc3ccc(C#N)cc3)CC(C1)O2` reads more than 5.5 mg/kg. The result for `N#Cc1ccc(OCCCN2CC3CN(CCNS(=O)(=O)Cc4ccccc4)CC(C2)O3)cc1` reads more than 5.5 mg/kg; that for `N#Cc1ccc(S(=O)(=O)NCCN2CC3CN(CCc4cccc(F)c4)CC(C2)O3)cc1`, more than 5.5 mg/kg. The result for `N#Cc1ccc(OCCN2CC3CN(CCCNS(=O)(=O)c4ccc(F)cc4)CC(C2)O3)cc1` reads more than 5.5 mg/kg; that for `N#Cc1ccc(S(=O)(=O)NCCCN2CC3CN(CCc4ccc(F)cc4)CC(C2)O3)cc1`, more than 5.5 mg/kg. As for `CN(CCN1CC2CN(CCc3ccc(F)c(F)c3)CC(C1)O2)S(=O)(=O)c1ccc(C#N)cc1`, the D10 is more than 5.5 mg/kg. On to `N#Cc1ccc(OCCCN2CC3CN(CCNS(=O)(=O)c4ccccc4OC(F)(F)F)CC(C2)O3)cc1`, for which the D10 is more than 5.5 mg/kg. The result for `Cc1noc(C)c1S(=O)(=O)NCCN1CC2CN(Cc3ccc(C#N)cc3)CC(C1)O2` reads more than 5.5 mg/kg; that for `N#Cc1ccc(OCCN2CC3CN(CCNS(=O)(=O)c4ccc(F)cc4)CC(C2)O3)c(F)c1`, more than 5.5 mg/kg; that for `CN(CCCN1CC2CN(CCOc3ccc(C#N)cc3F)CC(C1)O2)S(=O)(=O)c1ccccc1`, more than 5.5 mg/kg. With `N#Cc1ccc(OCCCN2CC3CN(CCNS(=O)(=O)c4ccc5c(c4)CCO5)CC(C2)O3)cc1`, the D10 was more than 5.5 mg/kg. As to `CN(CCN1CC2CN(CCc3ccc(Cl)cc3)CC(C1)O2)S(=O)(=O)c1ccc(C#N)cc1`, the D10 is more than 5.5 mg/kg. The result for `N#Cc1ccc(OCCN2CC3CN(CCNS(=O)(=O)c4ccc(C#N)cc4)CC(C2)O3)cc1` reads more than 5.5 mg/kg. To `N#Cc1ccc(OCCN2CC3CN(CCNS(=O)(=O)Cc4ccccc4)CC(C2)O3)cc1` belongs more than 5.5 mg/kg. The result for `N#Cc1ccc(OCCN2CC3CN(CCCNS(=O)(=O)Cc4ccccc4)CC(C2)O3)cc1` reads more than 5.5 mg/kg.

For the origin of these results see ChEMBL document CHEMBL3880410, “Novel oxabispidine compounds and their use in the treatment of cardiac arrhythmias” (2009).
